The results in this text go back to patent US4885239A, “Rapid differentiation of bacteria using polyether antibiotics” (Eastman Kodak Company, priority 1986, dated 1989).

For one assay, the system named is S. pyogenes. In words: dye formation from RIND VII in presence of calimycin, S. pyogenes. Further details: key: 0: no dye formation; +/-: faint dye formation; 1+: light dye formation; 2+: moderate dye formation; 3+: strong dye formation; 4+: very strong dye formation. Particulars: calimycin 10^-3 molar, calcium chloride. Type of assay: cell-based, Streptococcus pyogenes (ATCC 19615). As to the method: (§1) gram-negative bacteria Enterobacter cloacae (ATCC 23355), Escherichia coli (ATCC 25922), Proteus vulgaris (ATCC 13315), Klebsiella pneumoniae (ATCC 13883) and Pseudomonas aeruginosa (ATCC 27853), and gram-positive bacteria Staphylococcus aureus (ATCC 25923) and Streptococcus pyogenes (ATCC 19615), and brain heart infusion (BHI) broth from Difco Laboratories (Detroit, Mich.),
(§2) Bacterial suspensions were prepared by growing the cells in BHI to stationary phase overnight at 37° C. P. aeruginosa was grown with agitation. […]
(§3) TERGITOL 7 anionic surfactant was used to differentiate viable bacteria according to the prior art method. […] The amount of dye formed was then determined visually and graded as follows: 0 indicates no dye formation, +/- indicates faint dye formation, 1+ indicates light dye formation, 2+ indicates moderate dye formation, 3+ indicates strong dye formation, and 4+ indicates very strong dye formation.
(§4) Calimycin, a polyether antibiotic, was similarly used with RIND VII in the differentiation of bacteria. Assays were performed as described above, except that 25 μl of 1 molar calcium chloride solution was added to each test solution and the P. aeruginosa response was measured in the presence of 10% yeast extract as the carbon source instead of glucose. […]

For a further assay, the system named is S. aureus. In words: dye formation from RIND VII in presence of calimycin, S. aureus. Type of assay: cell-based, Staphylococcus aureus (ATCC 25923). Further details: key: 0: no dye formation; +/-: faint dye formation; 1+: light dye formation; 2+: moderate dye formation; 3+: strong dye formation; 4+: very strong dye formation. The settings on record: calimycin 10^-3 molar, calcium chloride. As to the method: as §1, §2, §3, §4

For the next assay, the system named is S. aureus (gram +). Kind of assay: change in relative fluorescence with water-compatible RIND XXXV (Example 4), S. aureus. Type of assay: cell-based, Staphylococcus aureus (ATCC 25923). The settings on record: 37° C., without antibiotic 2667. As to the method:
as §1
(§5) Bacterial suspensions were prepared by growing the cells in BHI to stationary phase overnight at 37° C. P. aeruginosa was grown with agitation. About 40 ml of overnight cultures were centrifuged, decanted and washed once with 0.05 molar potassium phosphate buffer or 0.05 molar N-2-hydroxyethylpiperazine-N'-2-ethanesulfonic acid (HEPES) buffer, pH 7.8, and resuspended in buffer.
(§6) A dispersion containing a RIND compound was prepared by dissolving RIND VII from Table II above in N,N-dimethylformamide (DMF) at 16 mg compound per ml of solvent. An aliquot (250 μl) of the resulting solution was added to 500 μl of TRITON X-100 surfactant. This mixture was then added dropwise with stirring to 25 ml of 0.05 molar HEPES buffer. A solution containing a water-compatible RIND compound XXXV was prepared by dissolving the compound (16 mg/ml) in N,N-dimethylformamide which had been acidified with a 0.1% sulfuric acid solution.
(§7) A solution was prepared from the following components: 100 μl RIND XXXV solution (16 mg/ml acidified N,N-dimethylformamide), 200 μl glucose solution (10% in water), 200 μl trimethyl-1,4-benzoquinone ETA solution (1.5 mg/ml methanol) and 10 ml HEPES buffer.
(§8) Test solutions were prepared from the following reagents: 50 μl HEPES buffer, 50 μl polyether antibiotic A23187 (free acid, 0.01 molar in methanol), 10 μl calcium chloride solution (1 molar) (serial dilutions of buffer and antibiotic were performed to obtain various antibiotic concentrations), 50 μl of the appropriate cell suspensions (E. coli, about 10^8 cells/ml and S. aureus, about 10^8 cells/ml) and 200 μl of the RIND solution. Control solutions were prepared as described in Examples 2 and 3.
(§9) Relative fluorescence was measured using a standard spectrophotometer modified to read at excitation of 540 nm and emission of 620 nm. The change (Δ) in relative fluorescence was determined after 30 minutes at 37° C. for several concentration levels of antibiotic.

A further assay has as its system E. coli (gram -). In words: change in relative fluorescence with water-compatible RIND XXXV (Example 4), E. coli. Type of assay: cell-based, Escherichia coli (ATCC 25922). Particulars: 37° C., without antibiotic 2539. As to the method:
as §1, §5, §6, §7, §8, §9

The test system of another assay is P. vulgaris. In words: dye formation from RIND VII in presence of calimycin, P. vulgaris. The settings on record: calimycin 10^-3 molar, calcium chloride. Details: key: 0: no dye formation; +/-: faint dye formation; 1+: light dye formation; 2+: moderate dye formation; 3+: strong dye formation; 4+: very strong dye formation. Type of assay: cell-based, Proteus vulgaris (ATCC 13315). As to the method: as §1, §2, §3, §4

The next assay relates to E. coli. Kind of assay: dye formation from RIND VII in presence of calimycin, E. coli. Type of assay: cell-based, Escherichia coli (ATCC 25922). Details: key: 0: no dye formation; +/-: faint dye formation; 1+: light dye formation; 2+: moderate dye formation; 3+: strong dye formation; 4+: very strong dye formation. Particulars: calimycin 10^-3 molar, calcium chloride. As to the method:
as §1, §2, §3, §4

Another assay has as its system S. faecalis. Kind of assay: dye formation from RIND VII in presence of calimycin, S. faecalis. Type of assay: cell-based, Streptococcus faecalis (clinical urine isolate). Further details: key: 0: no dye formation; +/-: faint dye formation; 1+: light dye formation; 2+: moderate dye formation; 3+: strong dye formation; 4+: very strong dye formation. The settings on record: calimycin 10^-3 molar, calcium chloride. As to the method: Streptococcus faecalis was isolated from a clinical urine specimen obtained from a local hospital,
as §5
A dispersion containing a RIND compound was prepared by dissolving RIND VII from Table II above in N,N-dimethylformamide (DMF) at 16 mg compound per ml of solvent. […]
as §3, §4

With `CNc1ccc2oc(C[C@H]3O[C@@]4(CC[C@H]3C)O[C@H]([C@H](C)C(=O)c3ccc[nH]3)[C@H](C)C[C@H]4C)nc2c1C(=O)O` [calimycin, Calimycin], the dye formation in the assay with S. pyogenes (15 Minutes) is reported as 0; with S. pyogenes (30 Minutes), 0; in the assay with S. aureus (15 Minutes), 0; in the assay on S. aureus (30 Minutes) it was 0; with P. vulgaris (15 Minutes) it was 4+; in the assay on P. vulgaris (30 Minutes), 4+. The dye formation in the assay with E. coli (15 Minutes) is on record as 3+; in the assay with E. coli (30 Minutes) it was 4+; with S. faecalis (15 Minutes), “+/-”; in the assay with S. faecalis (30 Minutes), “+/-”. The “Δ Relative Fluorescence after 30 Min.” value was 409 with S. aureus (gram +) (antibiotic 1 × 10^-4 molar); 362 in the assay with S. aureus (gram +) (antibiotic 2 × 10^-4 molar); 290 with S. aureus (gram +) (antibiotic 4 × 10^-4 molar); 345 in the assay on S. aureus (gram +) (antibiotic 8 × 10^-4 molar); 2804 in the assay with E. coli (gram -) (antibiotic 1 × 10^-4 molar); 2540 in the assay on E. coli (gram -) (antibiotic 2 × 10^-4 molar). The “Δ Relative Fluorescence after 30 Min.” value in the assay on E. coli (gram -) (antibiotic 4 × 10^-4 molar) is reported as 2338; in the assay on E. coli (gram -) (antibiotic 8 × 10^-4 molar), 2411.
